# Laboratory results: US9040691B2, “Hydroxymethylaryl-substituted pyrrolotriazines as ALK1 inhibitors” (BAYER INTELLECTUAL PROPERTY GMBH, priority 2011, dated 2015)
# How the values were obtained:
# [1] = molecular target: ALK1 kinase (Homo sapiens (Human), UniProt P37023); assay: In vitro enzyme inhibition using scintillation of incorporated radio label (flashplate assay); format: biochemical; details: biotinylated α-casein, 33P-ATP, 500 nM ATP
# [2] = test system: hSmad7 mRNA in BMP9-stimulated HUVEC; assay: Smad7 target gene induction: HUVEC cell assay and TaqMan expression analysis; format: cell-based, human; details: Homo sapiens, 3 h, 1 ng/ml BMP9 for 3 h, Smad7 mRNA by TaqMan
# Procedure: B-2b. Smad7 Target Gene Induction: HUVEC Cell Assay and TaqMan Expression Analysis
# The in vitro potency of ALK1 inhibitors was tested in a cell-based assay. Bone morphogenetic protein 9 (BMP9) induces Smad7 mRNA expression in human vascular endothelial cells (HUVEC) via activation of ALK1.
# 1.5×10^4 passage 2 HUVECs (Lonza, Basel, Switzerland) per well were seeded in a 96-well plate in EBM-2 medium containing EGM-2 additives and growth factors (Lonza, CC-3156 and CC-4176). After 4 h, the medium was changed to EBM-2 with 0.2% fetal calf serum (FCS) and the cells were starved for 20 h in a humidified incubator at 37° C., 5% CO2. Test compounds were added at 11 different concentrations between 0 and 10 000 nM one hour prior to stimulation of the cells for 3 h with recombinant human BMP9 protein at 1 ng/ml (dissolved in 4 mM hydrochloric acid, 0.1% BSA at 10 μg/ml; R&D Systems, Minneapolis, Minn., USA, 3209BP). Medium was removed, and the cells were lysed in 100 μl RLT buffer (Qiagen, Hilden, Germany). RNA was isolated using the Qiagen RNeasy 96 Kit (order-No. 74182) according to manufacturer's instructions and eluted from the columns with 65 μl RNAse-free water. Reverse transcription for quantitative RT-PCR was carried out with the Omniscript Kit (Qiagen, 205113) in RNAse-free 96-well round-bottom plates. Per well, 6.8 μl of a reaction master mix containing 2 μl 10×RT-buffer, 2 μl dNTPs (5 mM each), 1.6 μl random primer N6 (125 μM), 0.25 μl Rnase Out (40 U/μl) and 1 μl Omniscript Reverse Transcriptase were added. After addition of 13.2 μl of the RNA/water mixture, plate contents were mixed, incubated for 1 h at 37° C. and the total volume adjusted to 100 μl in each well by addition of 80 μl RNAse-free water.
# The quantification of human Smad7 mRNA was carried out on a TaqMan using the Eurogentec qPCR Mastermix Plus (RT-QP2X-03-075+; Cologne, Germany) and employing human L32 as housekeeping reference mRNA. Per qPCR reaction, 2.8 μl primer mix, 10 μl master mix, 2.2 μl water and 5 μl cDNA were added. Thermal cycling parameters were 2 min at 50° C., followed by 10 min at 95° C., followed by 40 cycles of melting at 95° C. for 15 sec and annealing/extending at 60° C. for 1 min.
# Smad7 mRNA levels induced by 1 ng/ml BMP9 without the addition of any inhibitor were set at 100% induction, and % inhibition was calculated for each test compound with this value. For each test compound, every value was determined in quadruplicate. The IC50 values were determined using Microsoft Excel. The fitting method used was a weighted, unconstrained ML-fit.
# ALK1 kinase, sequence (P37023 22-503): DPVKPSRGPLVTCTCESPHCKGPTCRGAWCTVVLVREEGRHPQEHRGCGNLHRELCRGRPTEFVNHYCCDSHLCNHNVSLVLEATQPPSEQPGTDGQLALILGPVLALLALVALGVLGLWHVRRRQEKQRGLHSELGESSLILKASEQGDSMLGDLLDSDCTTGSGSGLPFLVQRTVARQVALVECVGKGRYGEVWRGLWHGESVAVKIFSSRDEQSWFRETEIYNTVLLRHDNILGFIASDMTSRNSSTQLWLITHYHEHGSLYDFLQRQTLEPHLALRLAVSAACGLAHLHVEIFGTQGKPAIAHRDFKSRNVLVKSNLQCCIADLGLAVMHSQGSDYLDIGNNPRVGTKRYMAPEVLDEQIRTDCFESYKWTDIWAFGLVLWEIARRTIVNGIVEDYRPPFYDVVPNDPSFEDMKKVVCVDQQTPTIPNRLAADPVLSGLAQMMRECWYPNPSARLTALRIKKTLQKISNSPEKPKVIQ
Structure (SMILES),IC50 [1] [nM],IC50 [2] [nM]
"CCCc1cc(-c2cc(F)c(CO)c(F)c2)c2c(N)ncnn12 [Example 2, [4-(4-Amino-7-propylpyrrolo[2,1-f][1,2,4]triazin-5-yl)-2,6-difluorophenyl]methanol]",2.8,160
"Nc1ncnn2c([C@@H]3CCCNC3)cc(-c3cc(F)c(CO)c(F)c3)c12 [Example 11, (4-{4-Amino-7-[(3R)-piperidin-3-yl]pyrrolo[2,1-f][1,2,4]triazin-5-yl}-2,6-difluorophenyl)methanol]",1.9,180
"Nc1ncnn2c(CN3CCOCC3)cc(-c3ccc(CO)c(Cl)c3)c12 [Example 22, {4-[4-Amino-7-(morpholin-4-ylmethyl)pyrrolo[2,1-f][1,2,4]triazin-5-yl]-2-chlorophenyl}methanol]",17,3100
"Nc1ncnn2c(CCCO)cc(-c3ccc(CO)cc3)c12 [Example 3, 3-{4-Amino-5-[4-(hydroxymethyl)phenyl]pyrrolo[2,1-f][1,2,4]triazin-7-yl}propan-1-ol]",4,120
"Nc1nc(-c2cc(-c3ccc(CO)cc3)c3c(N)ncnn23)cs1 [Example 17, {4-[4-Amino-7-(2-amino-1,3-thiazol-4-yl)pyrrolo[2,1-f][1,2,4]triazin-5-yl]phenyl}methanol]",2,290
"Nc1ncnn2c(C(O)C3CC3)cc(-c3cc(F)c(CO)c(F)c3)c12 (centres unmarked) [Example 5, {4-Amino-5-[3,5-difluoro-4-(hydroxymethyl)phenyl]pyrrolo[2,1-f][1,2,4]triazin-7-yl}(cyclopropyl)methanol]",1.3,290
"Nc1ncnn2c(CN3CCOCC3)cc(-c3ccc(CO)c(F)c3)c12 [Example 21, {4-[4-Amino-7-(morpholin-4-ylmethyl)pyrrolo[2,1-f][1,2,4]triazin-5-yl]-2-fluorophenyl}methanol]",25,790

# Continued by falling IC50 [1], values first:
IC50 [1] [nM],Structure (SMILES),IC50 [2] [nM]
30,"Nc1ncnn2c(CN3CCOCC3)cc(-c3cc(F)c(CO)c(F)c3)c12 [Example 20, {4-[4-Amino-7-(morpholin-4-ylmethyl)pyrrolo[2,1-f][1,2,4]triazin-5-yl]-2,6-difluorophenyl}-methanol]",5900
2,"Nc1ncnn2c1c(-c1cc(F)c(CO)c(F)c1)cc2[C@H]1CC[C@H](O)CC1 [Example 7, trans-4-[4-Amino-5-[3,5-difluoro-4-(hydroxymethyl)phenyl]pyrrolo[2,1-f][1,2,4]triazin-7-yl]-cyclohexanol]",140
2,"CCCc1cc(-c2ccc(CO)cc2)c2c(N)ncnn12 [Example 1, [4-(4-Amino-7-propylpyrrolo[2,1-f][1,2,4]triazin-5-yl)phenyl]methanol]",94
